According to the OPERA property sets (Mansouri et al. 2018):
≈ marks a conversion by molar mass, not a printed value.

details: not given

| SMILES | logP |
| --- | --- |
| CCOP(=O)(OCC)SCS(=O)(=O)CC | 1.98 |

same assay, conditions: 20 °C

| SMILES | solubility |
| --- | --- |
| CNC(=O)Oc1ccccc1OC(C)C | 8890 µM (≈ 1860 µg/mL) |
| COP(=S)(OC)Oc1ccc([N+](=O)[O-])cc1 | 143 µM (≈ 37.7 µg/mL) |
| COP(=S)(OC)Oc1ccc([N+](=O)[O-])cc1Cl | 49.4 µM (≈ 14.7 µg/mL) |
| CCOC(=O)CC(SP(=S)(OC)OC)C(=O)OCC (configuration not stated) | 433 µM (≈ 143 µg/mL) |
| CCOP(=S)(OCC)SCn1nnc2ccccc2c1=O | 30.4 µM (≈ 10.5 µg/mL) |
| COP(=S)(OC)SCN1C(=O)c2ccccc2C1=O | 76.9 µM (≈ 24.4 µg/mL) |
| COP(=S)(OC)SCSc1ccc(Cl)cc1 | 5.08 µM (≈ 1.6 µg/mL) |
| CCOP(=O)(OCC)OC(=CCl)c1ccc(Cl)cc1Cl | 345 µM (≈ 124 µg/mL) |
| COP(=S)(OC)Oc1ccc(SC)c(C)c1 | 26.9 µM (≈ 7.5 µg/mL) |
| CNC(=O)Oc1ccc(N(C)C)c(C)c1 | 4390 µM (≈ 915 µg/mL) |
| COc1nn(CSP(=S)(OC)OC)c(=O)s1 | 619 µM (≈ 187 µg/mL) |
